Series [1] is described as follows: Lipophilicity, log D of the compound at pH 7.4 by shake flask method. The note with it: buffer. In kind it is physicochemical.
Series [2] can be described thus: Drug excretion in bile duct cannulated rat bile at 2 mg/kg, iv. The class given is ADME, organism-based. The conditions noted are these: read-out: Drug excretion.
Series [3] in a line: Drug excretion in bile duct cannulated rat urine at 2 mg/kg, iv. In kind it is ADME, organism-based. The note with it: read-out: Drug excretion.
Series [4] is described as follows: Aqueous solubility of the compound at pH 7.4 at 25 degC. In kind it is physicochemical. The note with it: buffer.

These results are taken from ChEMBL document CHEMBL4024763, “Discovery and Optimization of Pyrrolopyrimidine Inhibitors of Interleukin-1 Receptor Associated Kinase 4 (IRAK4) for the Treatment of Mutant MYD88L265P Diffuse Large B-Cell Lymphoma” (J Med Chem, 2017).

One may read the logD as the decadic logarithm of the distribution of all forms, ionised or not, between an organic phase and buffer at a given pH. One may read the solubility as the dissolved amount per volume that the medium holds. A lower solubility goes with little dissolved substance.

In brackets after ≈: the same amount, converted by molar mass.

Turning to `CN(C)[C@H]1CC[C@H](Nc2ncnc3sc4c(c23)CCC4)CC1`, in series [1] (read-out: logD), the logD came to 1.2.

Take `CN(C)[C@H]1CC[C@H](Nc2ncnc3[nH]cc(C4CCCOC4)c23)CC1` (some centres not stated): the logD in series [1] (read-out: logD) was found to be 0.3.

On to `CN(C)[C@H]1CC[C@H](Nc2ncnc3[nH]cc(C(F)(F)F)c23)CC1`, for which the logD in series [1] (read-out: logD) was 1.5.

Take `c1nc(N[C@H]2CC[C@H](N3CCOCC3)CC2)c2c(C3CCOCC3)c[nH]c2n1`: the dose excreted was 2% in series [2] and 27% in series [3].

Consider `c1nc(O[C@H]2CC[C@H](N3CCOCC3)CC2)c2c(C3CCOCC3)c[nH]c2n1`, for which, in series [1] (read-out: logD), the logD is 2.4.

As to `Cc1sc2ncnc(N[C@H]3CC[C@H](N(C)C)CC3)c2c1C`, the log distribution coefficient (logD) in series [1] (read-out: logD) was found to be 0.7.

Turning to `CN(C)[C@H]1CC[C@H](N(C)c2ncnc3[nH]cc(C4CCOCC4)c23)CC1`, the log distribution coefficient (logD) in series [1] (read-out: logD) worked out at 0.6.

As to `CCc1c[nH]c2ncnc(N[C@H]3CC[C@H](N(C)C)CC3)c12`, the pH-dependent lipophilicity (logD) in series [1] (read-out: logD) turned out to be 0.6.

With `CN(C)[C@H]1CC[C@H](Nc2ncnc3[nH]cc(C4CCC4)c23)CC1`, in series [1] (read-out: logD), the logD stood at 1.5.

For `N#Cc1cnc2[nH]cc(C3CCOCC3)c2c1N[C@H]1CC[C@H](N2CCOCC2)CC1`, the logD in series [1] (read-out: logD) was determined as 2.3.

As to `Cc1csc2ncnc(N[C@H]3CC[C@H](N(C)C)CC3)c12`, the logD in series [1] (read-out: logD) is 0.3.

Regarding `Cc1cc2c(N[C@H]3CC[C@H](N(C)C)CC3)ncnc2[nH]1`, in series [1] (read-out: logD), the logD was -0.2.

Consider `c1nc(S[C@H]2CC[C@H](N3CCOCC3)CC2)c2c(C3CCOCC3)c[nH]c2n1`, for which the concentration in solution in series [4] (solubility) was 5 µM (≈ 2.01 µg/mL). Also, the logD in series [1] (read-out: logD) worked out at 3.

`CN(C)[C@H]1CC[C@H](Nc2ncnc3[nH]c4c(c23)CCC4)CC1`: the logD in series [1] (read-out: logD) stood at 0.5.

For the molecule `CN(C)[C@H]1CC[C@H](Nc2ncnc3[nH]cc(C4CC4)c23)CC1`, in series [1] (read-out: logD), the logD worked out at 0.9.

On to `CN(C)[C@H]1CC[C@H](Nc2ncnc3[nH]ccc23)CC1`, for which the pH-dependent lipophilicity (logD) in series [1] (read-out: logD) was -0.6.

On to `Cc1cc2c(N[C@H]3CC[C@H](N(C)C)CC3)ncnc2s1`, for which, in series [1] (read-out: logD), the logD is 0.6.

As to `CN(C)[C@H]1CC[C@H](Oc2ncnc3[nH]cc(C4CCOCC4)c23)CC1`, in series [1] (read-out: logD), the logD was 1.2.

For `CN(C)[C@H]1CC[C@H](Nc2ncnc3[nH]cc(C4CCCC4)c23)CC1`, the logD in series [1] (read-out: logD) was 1.7.

`CN(C)[C@H]1CC[C@H](Nc2ncnc3sccc23)CC1`: the logD in series [1] (read-out: logD) turned out to be 0.1.

Consider `c1cc(N[C@H]2CC[C@H](N3CCOCC3)CC2)c2c(C3CCOCC3)c[nH]c2n1`, for which the logD in series [1] (read-out: logD) amounted to 1.7.

With `Cc1[nH]c2ncnc(N[C@H]3CC[C@H](N(C)C)CC3)c2c1C`, in series [1] (read-out: logD), the logD amounted to 0.6.

In the case of `CN(C)[C@H]1CC[C@H](Nc2ncnc3[nH]cc(C4CCCO4)c23)CC1` (stereo in doubt; 18a), the logD in series [1] (read-out: logD) was found to be 0.4.

With `CN(C)[C@H]1CC[C@H](Nc2ncnc3[nH]cc(C4CCCO4)c23)CC1` (stereo in doubt; 18b), in series [1], the logD was found to be 0.3.

With `CN(C)[C@H]1CC[C@H](Nc2ncnc3[nH]cc(C4CCOC4)c23)CC1` (stereo in doubt; 19a), the logD in series [1] (read-out: logD) came out at 0.1.
